Values after ≈ are worked out from the molar mass of the structure shown.
How the values were obtained:
[1] = molecular target: T1, PBP3 from Escherichia coli (K-12) (Escherichia coli, UniProt P0AD68); assay: Bocillin-FL fluorescence polarization competition binding, E. coli PBP3
T1 construct: made in house
Method in brief: (§1)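 Purified PBPs pre-incubated with inhibitor (E. coli PBP3 1.5 μM, 30 min; P. aeruginosa PBP3 0.75 μM, A. baumannii PBP1a 1 μM and PBP3 0.2 μM, 15 min), then Bocillin-FL 0.1 μM (0.05 μM for PBP1a) added; FP read up to 60 min. EC50 = concentration halving bound Bocillin-FL.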

[2] = molecular target: T2, PBP1a from Acinetobacter baumannii (ATCC 19606) (Acinetobacter baumannii, UniProt A0ABX6CK30); assay: Bocillin-FL fluorescence polarization competition binding, A. baumannii PBP1a; settings: fluorescence polarization competition binding assay using Bocillin-FL; read-out: A. baumannii PBP1a Potency
T2 sequence (A0ABX6CK30 1-851): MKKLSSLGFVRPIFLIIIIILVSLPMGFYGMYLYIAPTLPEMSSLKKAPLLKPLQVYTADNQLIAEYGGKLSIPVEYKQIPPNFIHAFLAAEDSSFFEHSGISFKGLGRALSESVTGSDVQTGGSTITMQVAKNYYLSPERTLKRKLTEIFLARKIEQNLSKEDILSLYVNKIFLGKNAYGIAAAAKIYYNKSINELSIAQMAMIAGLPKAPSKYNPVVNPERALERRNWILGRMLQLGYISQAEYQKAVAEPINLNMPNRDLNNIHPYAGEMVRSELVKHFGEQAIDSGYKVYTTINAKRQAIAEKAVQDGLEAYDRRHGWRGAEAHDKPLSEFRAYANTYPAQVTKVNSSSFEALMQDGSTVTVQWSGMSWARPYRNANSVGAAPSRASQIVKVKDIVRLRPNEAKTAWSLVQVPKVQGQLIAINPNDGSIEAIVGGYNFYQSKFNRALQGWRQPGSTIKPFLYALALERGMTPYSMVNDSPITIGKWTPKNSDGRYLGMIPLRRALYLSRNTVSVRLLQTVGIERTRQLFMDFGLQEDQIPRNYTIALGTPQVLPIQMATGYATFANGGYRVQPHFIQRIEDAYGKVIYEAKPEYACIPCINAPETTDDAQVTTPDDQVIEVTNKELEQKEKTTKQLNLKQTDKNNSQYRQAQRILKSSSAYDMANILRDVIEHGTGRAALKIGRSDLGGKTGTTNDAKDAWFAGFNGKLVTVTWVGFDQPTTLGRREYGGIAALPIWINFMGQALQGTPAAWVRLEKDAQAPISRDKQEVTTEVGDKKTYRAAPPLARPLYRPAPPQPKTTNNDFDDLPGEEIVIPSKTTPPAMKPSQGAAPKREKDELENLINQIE
Method in brief: as §1

[3] = molecular target: T3, PBP3 from Acinetobacter baumannii (ATCC 19606) (Acinetobacter baumannii, UniProt A0ABX6CK25); assay: Bocillin-FL fluorescence polarization competition binding, A. baumannii PBP3; settings: fluorescence polarization competition binding assay using Bocillin-FL; read-out: A. baumannii PBP3 Potency
T3 sequence (A0ABX6CK25 64-610): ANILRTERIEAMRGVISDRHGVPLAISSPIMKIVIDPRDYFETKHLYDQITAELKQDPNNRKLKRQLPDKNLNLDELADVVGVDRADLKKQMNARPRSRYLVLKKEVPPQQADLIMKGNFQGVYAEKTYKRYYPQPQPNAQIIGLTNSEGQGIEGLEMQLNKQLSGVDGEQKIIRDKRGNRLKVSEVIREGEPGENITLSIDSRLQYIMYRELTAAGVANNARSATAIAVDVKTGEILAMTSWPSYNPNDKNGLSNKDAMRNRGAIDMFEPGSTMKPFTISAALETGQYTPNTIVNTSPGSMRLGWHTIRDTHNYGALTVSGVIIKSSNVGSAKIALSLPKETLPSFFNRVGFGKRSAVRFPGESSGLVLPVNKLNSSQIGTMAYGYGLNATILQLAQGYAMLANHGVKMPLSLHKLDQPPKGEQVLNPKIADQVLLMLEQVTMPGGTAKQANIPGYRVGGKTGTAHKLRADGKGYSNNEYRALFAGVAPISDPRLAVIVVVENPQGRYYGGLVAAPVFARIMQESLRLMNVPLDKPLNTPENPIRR
Method in brief: as §1

[4] = test system: N. gonorrhoeae WHO G; assay: Liquid broth MIC in Fastidious broth; settings: Neisseria gonorrhoeae, read-out: Minimum Inhibitory Concentration, WHO G

T1 sequence (P0AD68 1-577): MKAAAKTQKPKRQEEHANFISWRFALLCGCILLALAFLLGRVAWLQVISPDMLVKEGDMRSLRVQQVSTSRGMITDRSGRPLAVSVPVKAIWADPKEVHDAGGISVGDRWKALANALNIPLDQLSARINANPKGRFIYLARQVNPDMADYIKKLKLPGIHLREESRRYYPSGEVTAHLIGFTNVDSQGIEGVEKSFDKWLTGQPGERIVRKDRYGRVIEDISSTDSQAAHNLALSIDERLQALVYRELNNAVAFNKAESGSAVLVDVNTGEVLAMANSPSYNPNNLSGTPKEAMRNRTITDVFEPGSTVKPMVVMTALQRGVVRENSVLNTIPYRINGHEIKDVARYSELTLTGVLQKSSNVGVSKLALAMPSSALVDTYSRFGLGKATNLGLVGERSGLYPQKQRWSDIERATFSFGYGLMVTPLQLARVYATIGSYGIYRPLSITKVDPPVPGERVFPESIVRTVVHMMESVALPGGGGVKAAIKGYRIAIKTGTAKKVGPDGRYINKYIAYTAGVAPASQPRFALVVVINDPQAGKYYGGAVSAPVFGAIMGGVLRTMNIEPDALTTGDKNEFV

Compound | EC50 [1] | IC50 [2] | IC50 [3] | MIC [4]
O=C(NCCS(=O)(=O)N1CCN(C(=O)NC(C(=O)N[C@H]2Cc3ccc(F)c(C(=O)O)c3OB2O)c2cc(F)c(O)c(O)c2Cl)C1=O)c1ccncc1 (stereo partly drawn) [Example 288, (3R)-3-(2-(2-chloro-5-fluoro-3,4-dihydroxyphenyl)-2-(3-((2-(isonicotinamido)ethyl)sulfonyl)-2-oxoimidazolidine-1-carboxamido)acetamido)-7-fluoro-2-hydroxy-3,4-dihydro-2H-benzo[e][1,2]oxaborinine-8-carboxylic acid] | < 10 µM | > 250 µM | < 10 µM | 4 to 8 µg/mL (≈ 5.22 to 10.4 µM)
O=C(NCCCN1CCN(C(=O)NC(C(=O)N[C@H]2Cc3ccc(F)c(C(=O)O)c3OB2O)c2cc(F)c(O)c(O)c2Cl)C(=O)C1=O)c1ccc(O)c(F)c1F (stereo partly drawn) [Example 306, (3R)-3-(2-(2-chloro-5-fluoro-3,4-dihydroxyphenyl)-2-(4-(3-(2,3-difluoro-4-hydroxybenzamido)propyl)-2,3-dioxopiperazine-1-carboxamido)acetamido)-7-fluoro-2-hydroxy-3,4-dihydro-2H-benzo[e][1,2]oxaborinine-8-carboxylic acid] | < 10 µM | > 250 µM | < 10 µM | 16 to 32 µg/mL (≈ 20.1 to 40.2 µM)
O=C(NCCCN1CCN(C(=O)NC(C(=O)N[C@H]2Cc3ccc(F)c(C(=O)O)c3OB2O)c2cc(F)c(O)c(O)c2Cl)C(=O)C1=O)c1ccc(O)c(Cl)c1 (stereo partly drawn) [Example 305, (3R)-3-(2-(4-(3-(3-chloro-4-hydroxybenzamido)propyl)-2,3-dioxopiperazine-1-carboxamido)-2-(2-chloro-5-fluoro-3,4-dihydroxyphenyl)acetamido)-7-fluoro-2-hydroxy-3,4-dihydro-2H-benzo[e][1,2]oxaborinine-8-carboxylic acid] | < 10 µM | > 250 µM | < 10 µM | 16 to 32 µg/mL (≈ 20.1 to 40.3 µM)

— patent US20240270762A1, “PENICILLIN-BINDING PROTEIN INHIBITORS” (priority 2021, published 2024)
